According to paper PMC12655438, “Inhibitory Activity of Calcium and Sodium Ion Channels of Neurotoxic Protoplaythoa variabilis V-Shape Helical Peptide Analogs and Their Neuroprotective Effect In Vitro” (Pharmaceuticals, 2025):
“Also recorded” adds a separate entry of the source. Where two headings read alike, the source gives them in different places. Where a SMILES comes first, the peptide text is derived from it. Bridges are numbered along the chain shown (N, C = ends).

Key:
Cav channels (Cav2.2) = settings: cited from earlier work
[1] = test system: intracellular calcium level ([Ca^2+]c) in bovine chromaffin cells; assay: Intracellular calcium level with Fluo-4-AM in K+-stimulated bovine chromaffin cells; format: cell-based; settings: for Reduction of [Ca2+]c: Fluo-4, K+ stimulus (text 35 µM, legend 35 mM), room temperature, fluorescence 488/522 nm, mean ± SEM; for Reduction of fluorescence compared with baseline: p ≤ 0.001; for IC50: K+-stimulated, fit to an exponential function, 1, 3, 10 μM, read-out: IC50 for depression of the intracellular calcium increment
[2] = test system: voltage-dependent Ca^2+ channel (ICa) in bovine chromaffin cells; format: cell-based; settings: for Block of ICa: 50 ms pulses to 0 mV, holding -80 mV, 10 mM Ca2+, 5 μM TTX, pH 7.4, 22–24 °C, end of 1-min superfusion; for IC50: peak ICa, fit to an exponential function, 1, 3, 10 μM, read-out: IC50 for calcium current blockade
[3] = test system: voltage-dependent potassium current (IKv) in bovine chromaffin cells; assay: Voltage-dependent potassium current (IKv) block, whole-cell patch clamp in bovine chromaffin cells; format: cell-based; settings: for Block of IKv: 10 µM, 400 ms pulses to 100 mV, holding -80 mV, 2 mM Ca2+, 200 μM Cd2+, 22–24 °C, mean ± SEM, n = 3–4 cells
[4] = test system: sodium inward current (INa) in bovine chromaffin cells; assay: Sodium current (INa) block, whole-cell patch clamp in bovine chromaffin cells; format: cell-based; settings: for Block of INa: 10 ms pulses to 0 mV, holding -80 mV, 0 mM external Ca2+, pH 7.4, 22–24 °C, end of 3-min superfusion (legend: 1 min), mean ± SEM, n = 3–6 cells; for IC50: peak INa, fit to an exponential function, 1, 3, 10 μM, read-out: IC50 for sodium current blockade
[5] = test system: voltage-gated sodium channels in vertebrates; settings: ref [14]; cited from earlier work
Description: (§1) Previously, we investigated the synthetic versions of the linear PpVα and the folded PpVα analog, which contains an internal single disulfide bond, and the linear, chimeric PpVα.

[6] = TFA salt, lyophilized powder, ref China Peptides (custom peptide service), cited from earlier work
[7] = test system: human neuroblastoma (SH-SY5Y) cells; settings: 24 h
[8] = test system: zebrafish model of epilepsy; settings: ref [14]; cited from earlier work
Description: as §1

[9] = test system: 6-OHDA-induced neurotoxicity on zebrafish locomotor behavior; settings: ROS, dopaminergic neurons, ref [14], cited from earlier work
Description: Previously, we investigated the synthetic versions of the linear PpVα and the folded PpVα analog, which contains an internal single disulfide bond, and the linear, chimeric PpVα. […] [17].

zebrafish larvae = settings: cited from earlier work; for LD50 in zebrafish larvae: concentration causing 50% of death
[10] = test system: human neuroblastoma (SH-SY5Y) cells; settings: veratridine, 24 h
[11] = 1 μM, mean ± SEM, n = 3–5 cells (legend: 5–6)
[12] = 3 μM, mean ± SEM of 5–6 experiments
[13] = 10 μM, mean ± SEM of 5–6 experiments

Row | Compound | Reduction of [Ca2+]c ([1]; 1 μM) | Reduction of [Ca2+]c ([1]; 3 μM) | Reduction of [Ca2+]c ([1]; 10 μM) | Reduction of fluorescence compared with baseline ([1]; 10 μM) | IC50 [1] | Block of ICa [2, 11] | Block of ICa [2, 12] | Block of ICa [2, 13] | IC50 [2] | Block of IKv [3] | Block of INa ([4]; 1 μM) | Block of INa ([4]; 3 μM) | Block of INa ([4]; 10 μM) | IC50 [4] | Block of voltage-gated sodium channels in vertebrates [5] | Cell viability ([7]; 1 μM) | Cell viability ([7]; 3 μM) | Cell viability ([7]; 10 μM) | Solubility ([6]; in 30%ACN/70%H2O) | LD50 in zebrafish larvae (zebrafish larvae; ref [14],[53]) | also measured
1 | ziconotide |  |  |  |  |  |  |  |  |  |  |  |  |  |  |  |  |  |  |  |  | Cav channel inhibition (Cav channels (Cav2.2)): highly selective and potent inhibitor of Cav channels
2 | CC[C@H](C)[C@H](NC(=O)[C@H](CC(C)C)NC(=O)[C@H](CCC(=O)O)NC(=O)CN)C(=O)N[C@@H](CCCCN)C(=O)N[C@@H](CCSC)C(=O)N[C@@H](CCCCN)C(=O)N[C@@H](Cc1ccc(O)cc1)C(=O)N[C@@H](Cc1c[nH]c2ccccc12)C(=O)N[C@H](C(=O)N[C@@H](CC(C)C)C(=O)N[C@@H](CC(N)=O)C(=O)N[C@H](C(=O)N1CCC[C@H]1C(=O)N[C@@H](C)C(=O)N[C@@H](CO)C(=O)N[C@H](C(=O)N[C@@H](CS)C(=O)N[C@@H](CC(=O)O)C(=O)N[C@@H](CCC(=O)O)C(=O)N[C@@H](Cc1ccc(O)cc1)C(=O)N[C@@H](CS)C(=O)N[C@@H](Cc1c[nH]c2ccccc12)C(=O)N[C@@H](CO)C(=O)N[C@@H](CCC(N)=O)C(=O)N[C@@H](CCSC)C(=O)N[C@@H](CC(C)C)C(=O)N[C@@H](CC(C)C)C(=O)N[C@@H](Cc1ccc(O)cc1)C(=O)N[C@@H](CCCCN)C(=O)N[C@@H](CCCCN)C(=O)N[C@@H](CO)C(N)=O)C(C)C)C(C)C)[C@@H](C)CC [CHI] (H-GELIKMKYWILNVPASVCDEYCWSQMLLYKKS-NH2; N-terminus assumed) | 33.2 ± 9.4% | 36.0 ± 8.2% | 65.0 ± 4.7% | more than 60% | 6.89 µM | 10.74 ± 0.61% | 14.28 ± 2.08% | 63.43 ± 4.76% | 8.88 µM | 1.21 ± 2.42% | 14.79 ± 2.16% | 22.05 ± 3.61% | 75.57 ± 5.05% | 7.65 µM | effective blockers of voltage-gated sodium channels in vertebrates | 71% | 73% | 67% |  |  | Effect on INa at low concentrations ([4]; 1 and 3 μM): no effect on INa; Solubility ([6]; in 20%ACN/80%H2O): 1000 µg/mL
3 | CC[C@H](C)[C@H](NC(=O)[C@H](Cc1c[nH]c2ccccc12)NC(=O)[C@H](Cc1ccc(O)cc1)NC(=O)[C@@H](N)CCCCN)C(=O)N[C@@H](CC(C)C)C(=O)N[C@@H](CC(N)=O)C(=O)N[C@H](C(=O)N1CCC[C@H]1C(=O)N[C@@H](C)C(=O)N[C@@H](CO)C(=O)N[C@H](C(=O)N[C@H]1CSSC[C@@H](C(=O)N[C@@H](Cc2c[nH]c3ccccc23)C(=O)N[C@@H](CO)C(=O)N[C@@H](CCC(N)=O)C(=O)N[C@@H](CCSC)C(=O)N[C@@H](CC(C)C)C(=O)N[C@@H](CC(C)C)C(=O)N[C@@H](Cc2ccc(O)cc2)C(=O)N[C@@H](CCCCN)C(=O)N[C@@H](CCCCN)C(=O)N[C@@H](CO)C(N)=O)NC(=O)[C@H](Cc2ccc(O)cc2)NC(=O)[C@H](CCC(=O)O)NC(=O)[C@H](CC(=O)O)NC1=O)C(C)C)C(C)C [SSB] (H-KYWILNVPASVCDEYCWSQMLLYKKS-NH2; disulfide 12-16; N-terminus assumed) | 28.1 ± 6.0% | 33.3 ± 7.9% | 42.7 ± 7.4% |  | 26 µM | 10.10 ± 7.22% |  | 74.46 ± 5.00% | 9.68 µM | 12.84 ± 4.19% |  | 52.01 ± 11.02% | 73.76 ± 6.37% | 3.15 µM | effective blockers of voltage-gated sodium channels in vertebrates | 75% | 68% | 65% | 1000 µg/mL | 10.88 µM | Effect on voltage-dependent potassium current ([3]; up to 10 µM): no effect on IKv was observed; Antiepileptic and neuroprotective activities [8]: displayed antiepileptic and neuroprotective activities; Effect on 6-OHDA-induced neurotoxicity ([9]; listed as folded PpVα): reversing the 6-hydroxydopamine (6-OHDA)-induced neurotoxicity on zebrafish locomotor behavior; also recorded: preventing the 6-OHDA-induced excessive ROS generation and subsequent dopaminergic neuron loss; Effect on 6-OHDA-induced neurotoxicity ([9]; listed as folded peptide): more effective than the linear unfolded peptide in suppressing 6-OHDA-induced neurotoxicity on locomotor behavior in zebrafish; Effect on 6-OHDA-induced neurotoxicity ([9]; listed as folded-PpVα): prevented the 6-OHDA-induced excessive ROS generation and subsequent dopaminergic neuron loss; Toxicity relative to the linear peptide (zebrafish larvae; zebrafish model, ref [14]): less toxic than the linear peptide
4 | CC[C@H](C)[C@H](NC(=O)[C@H](Cc1c[nH]c2ccccc12)NC(=O)[C@H](Cc1ccc(O)cc1)NC(=O)[C@@H](N)CCCCN)C(=O)N[C@@H](CC(C)C)C(=O)N[C@@H](CC(N)=O)C(=O)N[C@H](C(=O)N1CCC[C@H]1C(=O)N[C@@H](C)C(=O)N[C@@H](CO)C(=O)N[C@H](C(=O)N[C@@H](CS)C(=O)N[C@@H](CC(=O)O)C(=O)N[C@@H](CCC(=O)O)C(=O)N[C@@H](Cc1ccc(O)cc1)C(=O)N[C@@H](CS)C(=O)N[C@@H](Cc1c[nH]c2ccccc12)C(=O)N[C@@H](CO)C(=O)N[C@@H](CCC(N)=O)C(=O)N[C@@H](CCSC)C(=O)N[C@@H](CC(C)C)C(=O)N[C@@H](CC(C)C)C(=O)N[C@@H](Cc1ccc(O)cc1)C(=O)N[C@@H](CCCCN)C(=O)N[C@@H](CCCCN)C(=O)N[C@@H](CO)C(N)=O)C(C)C)C(C)C [PPA] (H-KYWILNVPASVCDEYCWSQMLLYKKS-NH2; N-terminus assumed) | 38.5 ± 7.1% | 38.7 ± 10.8% | 60.9 ± 6.1% | more than 60% | 6.95 µM | 19.92 ± 5.32% | 38.50 ± 7.14% | 52.86 ± 8.69% | 8.77 µM | 14.04 ± 5.99% | 14.80 ± 5.05% | 28.92 ± 4.60% | 54.32 ± 8.29% | 9.08 µM |  | 77% | 71% | 60% | 1000 µg/mL | 21.23 µM | Survival rate of zebrafish larvae (zebrafish larvae; 1–30 µM, three different times, ref [14],[53]): decrease in survival rate to a minimum, for example, within 20 min at 3 µM peptide; Neuroprotection against veratridine, in words [10]: lower neuroprotection than SSB and CHI
